According to publication PMC11229689, “In Vitro Selection of Macrocyclic L-α/D-α/β/γ-Hybrid Peptides Targeting IFN-γ/IFNGR1 Protein–Protein Interaction” (Journal of the American Chemical Society, 2024):
*1 amine or outer side, *2 acyl side, *3 side chain or, on linkers, in order; H or OH if unused. Where a SMILES comes first, the peptide text is derived from it. Bridges are numbered along the chain shown (N, C = ends). [ ]: non-standard residue; d: D form. Acbc(trans-1,3) = O=C([C@H]1C[C@H](N[*:1])C1)[*:2]; Acbc(cis-1,3) = O=C([C@H]1C[C@@H](N[*:1])C1)[*:2]; X1 = O=C([C@@H]1CCC[C@@H]1N[*:1])[*:2]

Experiments:
[1] = target: T1, IFN-γ/IFNGR1 protein–protein interaction (Homo sapiens, UniProt P15260); assay: IFNGR1 inhibition assay using AlphaLISA; type: biochemical; conditions: four-parameter dose–response fit, n = 3
T1 construct: purchased ACROBiosystems
T1 sequence (P15260 18-245 limits assumed): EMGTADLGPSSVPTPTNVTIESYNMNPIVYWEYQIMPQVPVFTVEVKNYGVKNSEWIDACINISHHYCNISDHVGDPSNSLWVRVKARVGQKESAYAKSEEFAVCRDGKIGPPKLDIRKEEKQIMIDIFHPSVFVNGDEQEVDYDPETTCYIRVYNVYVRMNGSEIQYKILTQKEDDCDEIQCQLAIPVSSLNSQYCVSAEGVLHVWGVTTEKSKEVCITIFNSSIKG
Description: IFNGR1 inhibition assay using AlphaLISA
The inhibitory activity of peptides against IFN-γ/IFNGR1 protein–protein interaction (PPI) was determined by AlphaLISA.5 Peptides, proteins, and beads were diluted in AlphaLISA immunoassay buffer (PerkinElmer, AL000C). 3.6 μL of 5 nM Fc-tagged IFNGR1 and 3.6 μL of synthetic peptides were mixed in AlphaPlate-384 Shallow Well (PerkinElmer) and preincubated at 25 °C for 10 min. 3.6 μL of 15 nM biotin-tagged IFN-γ was then added to the mix and incubated at 25 °C for 20 min. 3.6 μL each human IgG acceptor beads (PerkinElmer) and streptavidin donor beads (PerkinElmer) were added to the above mix and incubated at 25 °C for 30 min in dark place. Emission at 615 nm was measured […]
by EnSpire Multimode Plate Reader (PerkinElmer). The fraction of bound IFN-γ/IFNGR1 was calculated by the intensity of emission in the presence of peptide divided by that in the absence of […]
peptide. […]
Puromycin. Normocin, Blasticidin, Zeocin, and Puromycin were excluded when conducting the experiments. To evaluate the cellular activity of peptides, peptide mixtures were added to 50,000 cells/well in a flat-bottom 96-well plate and pre-incubated for 30 min at 37 °C before stimulation.
Subsequently, 1 ng/mL of recombinant IFN-γ (InvivoGen) was added to each well in a final reaction volume of 200 μL, followed by incubation for 20 h at 37 °C. 20 μL of supernatants from the induced cells was added to 180 μL Q U A N T I-Blue TM solution (InvivoGen). After further incubation for 3 h at 37 °C, the expression levels of the secreted embryonic alkaline phosphatase (SEAP) were determined by reading the O.D. at 650 nm on a Tecan M1000 PRO microplate reader (Tecan Group) and normalized to the non-treated well. IC50 value was analyzed by a normalized dose-response curve fitting by using GraphPad Prism 9.
HEK-DualTM IFN-γ cells were used for the cell viability assay. 10,000 cells/well were added to each well in a flat-bottom 96-well plate. After 24 h, peptide mixtures were added to each well in a final volume of 100 μL. After further incubation for 24 h, 10 μL CCK-8 reagent (Dojindo) was added to […]

Fc-tagged human IFNGR1 = target: T2, Fc-tagged human IFNGR1 (Homo sapiens, UniProt P15260); assay: Binding kinetics and affinity to IFNGR1 by surface plasmon resonance (SPR); conditions: SPR, 25 °C, 1:1 binding model; for Kd: read-out: KD; for kon: single-cycle kinetics, read-out: ka
T2 construct: purchased ACROBiosystems
T2 sequence (P15260 18-489): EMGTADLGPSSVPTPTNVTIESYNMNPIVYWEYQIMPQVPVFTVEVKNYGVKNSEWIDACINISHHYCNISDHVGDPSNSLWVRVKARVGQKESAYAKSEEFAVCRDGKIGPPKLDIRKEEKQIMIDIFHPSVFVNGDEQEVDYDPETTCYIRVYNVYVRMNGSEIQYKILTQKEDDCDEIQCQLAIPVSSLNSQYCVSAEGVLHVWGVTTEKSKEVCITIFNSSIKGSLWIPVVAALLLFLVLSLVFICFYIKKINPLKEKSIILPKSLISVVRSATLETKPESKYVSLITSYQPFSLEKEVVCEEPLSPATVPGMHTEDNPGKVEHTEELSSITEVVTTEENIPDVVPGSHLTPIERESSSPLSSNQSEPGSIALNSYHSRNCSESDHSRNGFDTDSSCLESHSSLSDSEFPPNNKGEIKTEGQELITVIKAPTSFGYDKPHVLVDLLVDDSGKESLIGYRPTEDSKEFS
Description: Binding affinities of IA1 and IA2 against IFNGR1 were evaluated by surface plasmon resonance (SPR) (Table 1 and SI Figure S6A). […] To investigate the contribution of the N-terminal [yVPβ^1RR] motif and β^1 residue in IA1, three scrambled peptides IA1s1–3 and a variant IA1β^14A were synthesized and evaluated. […] We next evaluated inhibitory activities of IA1 and IA2 against the ligand–receptor PPI between IFN-γ and IFNGR1 using AlphaLISA (Table 1 and SI Figure S7).[37] […] We also determined the serum half-lives of IA1 and IA2, considering peptidase resistance as an important factor for therapeutic peptides.[24] A sample peptide and a peptidase-resistant internal standard peptide were coincubated in human serum at 37 °C, and the relative amount of the remaining sample peptide was estimated by LC/MS. […]
Evaluation of binding affinity of peptides by surface plasmon resonance The binding affinities of selected peptides and IFNGR1 were analyzed by surface plasmon resonance (SPR) using a Biacore T200 instrument (Cytiva) at 25 °C with the following running buffer: 10 mM Tris-HCl (pH 8.0), 150 mM NaCl, 0.05% (v/v) Tween 20 , and 0.1% (v/v) DMSO. Fc-tagged IFNGR1 was immobilized on a series S sensor chip protein G (Cytiva) to a surface density of 1,200–1,600 response units following the immobilization protocols provided by Cytiva. The kinetic constants were determined by a single-cycle kinetics method by the injection of five different concentrations (twofold dilution series) of each peptide at a flow rate of 30 μL/min. The resulting sensorgrams were fitted to the standard 1:1 interaction model and analyzed using Biacore evaluation software. […]

**Q.** With `CC(C)[C@@H]1NC(=O)[C@@H](Cc2ccc(O)cc2)NC(=O)CSC[C@H](C(N)=O)NC(=O)[C@H](CC(N)=O)NC(=O)[C@H](CO)NC(=O)[C@H](CCCNC(=N)N)NC(=O)[C@H]2C[C@H](C2)NC(=O)[C@H](Cc2c[nH]cn2)NC(=O)[C@H](CC(N)=O)NC(=O)[C@H]([C@@H](C)O)NC(=O)[C@H](Cc2c[nH]cn2)NC(=O)[C@H](CCCNC(=N)N)NC(=O)[C@H](CCCNC(=N)N)NC(=O)[C@@H]2CCC[C@@H]2NC(=O)[C@@H]2CCCN2C1=O` [IA1, ^AcyVPβ^1RRHTNHγ^1RSNc-NH2] ({CH2CO}-[dY]VP[X1]RRHTNH[Acbc(cis-1,3)]RSN[dC]-NH2; thioether N-15) as the molecule, how does the IC50 [1] read?
**A.** The IC50 was 87 ± 15 nM.

**Q.** What about the Kd (Fc-tagged human IFNGR1) of the same molecule?
**A.** Its Kd is 87 ± 2 nM.

**Q.** And the kon (Fc-tagged human IFNGR1)?
**A.** The kon was 180000 M⁻¹ s⁻¹.

**Q.** What does the source list for `CC(C)[C@@H]1NC(=O)[C@@H](Cc2ccc(O)cc2)NC(=O)CSC[C@H](C(N)=O)NC(=O)[C@H](CCCNC(=N)N)NC(=O)[C@H](CO)NC(=O)[C@H](CCCNC(=N)N)NC(=O)[C@H](Cc2c[nH]cn2)NC(=O)CNC(=O)[C@H]2C[C@H](C2)NC(=O)[C@H](Cc2c[nH]cn2)NC(=O)[C@H](CC(N)=O)NC(=O)[C@H](CCCNC(=N)N)NC(=O)[C@H](CCCNC(=N)N)NC(=O)[C@@H]2CCC[C@@H]2NC(=O)[C@H](C)NC1=O` [IB1, ^AcyVAβ^1RRNHγ^1GHRSRc-NH2] ({CH2CO}-[dY]VA[X1]RRNH[Acbc(cis-1,3)]GHRSR[dC]-NH2; thioether N-15)?
**A.** IC50 [1]: 12 ± 3 nM; Kd (Fc-tagged human IFNGR1): 11 nM; kon (Fc-tagged human IFNGR1): 650000 ± 20000 M⁻¹ s⁻¹

**Q.** Which results are given for `CC(C)[C@@H]1NC(=O)[C@@H](Cc2ccc(O)cc2)NC(=O)CSC[C@H](C(N)=O)NC(=O)[C@H](CCCNC(=N)N)NC(=O)[C@H](CO)NC(=O)[C@H](CCCNC(=N)N)NC(=O)[C@H](Cc2c[nH]cn2)NC(=O)CNC(=O)[C@H]2C[C@H](C2)NC(=O)[C@H](Cc2c[nH]cn2)NC(=O)[C@H](CC(N)=O)NC(=O)[C@H](CCCNC(=N)N)NC(=O)[C@H](CCCNC(=N)N)NC(=O)[C@H](C)NC(=O)[C@H](C)NC1=O` [IB1β^14A, ^AcyVAA RRNHγ^1GHRSRc-NH2] ({CH2CO}-[dY]VAARRNH[Acbc(cis-1,3)]GHRSR[dC]-NH2; thioether N-15)?
**A.** IC50 [1]: > 100000 nM; Kd (Fc-tagged human IFNGR1): > 10000 nM

**Q.** With `CC(C)[C@@H]1NC(=O)[C@@H](Cc2ccc(O)cc2)NC(=O)CSC[C@H](C(N)=O)NC(=O)[C@H](C)NC(=O)[C@H](Cc2c[nH]cn2)NC(=O)[C@H](CCCNC(=N)N)NC(=O)[C@H](CCCNC(=N)N)NC(=O)CNC(=O)[C@H]2C[C@@H](C2)NC(=O)[C@H](Cc2c[nH]cn2)NC(=O)[C@H](CC(N)=O)NC(=O)[C@H](CCCNC(=N)N)NC(=O)[C@H](CCCNC(=N)N)NC(=O)[C@@H]2CCC[C@@H]2NC(=O)[C@H](C)NC1=O` [IB2γ^19γ^2, ^AcyVAβ^1RRNHγ^2GRRHAc-NH2] ({CH2CO}-[dY]VA[X1]RRNH[Acbc(trans-1,3)]GRRHA[dC]-NH2; thioether N-15) as the molecule, how does the IC50 [1] read?
**A.** The IC50 was 680 ± 50 nM.

**Q.** What about the Kd (Fc-tagged human IFNGR1) of the same molecule?
**A.** The Kd was 68 ± 12 nM.

**Q.** What about the kon (Fc-tagged human IFNGR1) of the same molecule?
**A.** Its kon is 75000 ± 25000 M⁻¹ s⁻¹.

**Q.** Which results are given for `CC(C)[C@@H]1NC(=O)[C@@H](Cc2ccc(O)cc2)NC(=O)CSC[C@H](C(N)=O)NC(=O)[C@H](C)NC(=O)[C@H](CO)NC(=O)[C@H](CCCNC(=N)N)NC(=O)[C@H](CCCNC(=N)N)NC(=O)CNC(=O)[C@H]2C[C@H](C2)NC(=O)[C@H](Cc2c[nH]cn2)NC(=O)[C@H](CC(N)=O)NC(=O)[C@H](CCCNC(=N)N)NC(=O)[C@H](CCCNC(=N)N)NC(=O)[C@@H]2CCC[C@@H]2NC(=O)[C@H](C)NC1=O` [IB3, ^AcyVAβ^1RRNHγ^1GRRSAc-NH2] ({CH2CO}-[dY]VA[X1]RRNH[Acbc(cis-1,3)]GRRSA[dC]-NH2; thioether N-15)?
**A.** IC50 [1]: 12 nM; Kd (Fc-tagged human IFNGR1): 9.5 ± 0.7 nM; kon (Fc-tagged human IFNGR1): 930000 ± 420000 M⁻¹ s⁻¹

**Q.** With `CC(C)[C@@H]1NC(=O)[C@@H](Cc2ccc(O)cc2)NC(=O)CSC[C@H](C(N)=O)NC(=O)[C@H](C)NC(=O)[C@H](CO)NC(=O)[C@H](CCCNC(=N)N)NC(=O)[C@H](CCCNC(=N)N)NC(=O)CNC(=O)[C@H]2C[C@@H](C2)NC(=O)[C@H](Cc2c[nH]cn2)NC(=O)[C@H](CC(N)=O)NC(=O)[C@H](CCCNC(=N)N)NC(=O)[C@H](CCCNC(=N)N)NC(=O)[C@@H]2CCC[C@@H]2NC(=O)[C@H](C)NC1=O` [IB3γ^19γ^2, ^AcyVAβ^1RRNHγ^2GRRSAc-NH2] ({CH2CO}-[dY]VA[X1]RRNH[Acbc(trans-1,3)]GRRSA[dC]-NH2; thioether N-15) as the molecule, how does the IC50 [1] read?
**A.** The IC50 was 350 ± 30 nM.

**Q.** And the Kd (Fc-tagged human IFNGR1)?
**A.** Its Kd is 49 ± 7 nM.

**Q.** What about the kon (Fc-tagged human IFNGR1) of the same molecule?
**A.** The kon was 470000 ± 320000 M⁻¹ s⁻¹.

**Q.** Which IC50 [1] does the source give for `CC(C)[C@@H]1NC(=O)[C@@H](Cc2ccc(O)cc2)NC(=O)CSC[C@H](C(N)=O)NC(=O)[C@H](CC(N)=O)NC(=O)[C@H](Cc2c[nH]cn2)NC(=O)[C@H](CCCNC(=N)N)NC(=O)[C@H]2C[C@@H](C2)NC(=O)[C@H]([C@@H](C)O)NC(=O)[C@H](Cc2c[nH]cn2)NC(=O)[C@@H]2CCCN2C(=O)[C@H](CO)NC(=O)[C@H](CCCNC(=N)N)NC(=O)[C@H](CCCNC(=N)N)NC(=O)[C@@H]2CCC[C@@H]2NC(=O)[C@@H]2CCCN2C1=O` [IB5, ^AcyVPβ^1RRSPHTγ^2RHNc-NH2] ({CH2CO}-[dY]VP[X1]RRSPHT[Acbc(trans-1,3)]RHN[dC]-NH2; thioether N-15) here?
**A.** Its IC50 is 220 ± 10 nM.

**Q.** What about the Kd (Fc-tagged human IFNGR1) of the same molecule?
**A.** The Kd was 130 ± 20 nM.

**Q.** What about the kon (Fc-tagged human IFNGR1) of the same molecule?
**A.** Its kon is 17000 ± 5000 M⁻¹ s⁻¹.
